“And” between values parts separate entries of the source, which are not always exact repeats. Equal values may be shown once.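 Compound exposure: 48 hours, 5 concentrations, 96-well plates. GI50 is the concentration that inhibits growth by half. TGI: concentration producing complete growth inhibition.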 Bounds are passed on as bounds.

The first experiment concerns IGROV1 ovarian. Description: NCI tumour cell line growth inhibition, 48 h.
Consider `O=C1c2ccccc2N2OC3(N4CCCC4)CCCC3C12c1ccccc1` (configuration not stated), for which the TGI is over 100 µM.
`COc1ccc(C2C(Cl)C(=O)N2n2cnc3ccccc3c2=O)cc1OC` (configuration not stated): the TGI was over 100 µM.
Still for that read-out and setting: to `Nc1nc2c(ncn2Cc2ccccc2CCO)c(=O)[nH]1` belongs over 100 µM.
`CCC1(Br)C(=O)NC(=O)N(C2CC(O)C(CO)O2)C1N=[N+]=[N-]` (configuration not stated) gave a TGI of over 100 µM.
On the same count and under the same terms, then `O=[N+]([O-])c1ccc(N=Nc2c(O)[nH]c3ccc([N+](=O)[O-])cc23)cc1`, with over 100 µM.
Consider `CC12CC3(C)CC(C)(C1)CC(N=[N+]=[N-])(C2)C3`, for which the TGI was over 100 µM.
`Clc1ccc([O][In]([O]c2ccc(Cl)cn2)[O]c2ccc(Cl)cn2)nc1`: the GI50 was over 100 µM and the TGI is over 100 µM.
With `Fc1cccc(Cl)c1C1SCc2nc3ccccc3n21` (configuration not stated), the TGI is over 100 µM.
On the same count and under the same terms, then `COc1cc2nncc(Sc3cnnc4ccccc34)c2cc1OC`, with over 100 µM.
On the same count and under the same terms, then `COC(=O)C1=CCON(c2ccccc2)C1c1ccccc1` (configuration not stated), with over 100 µM.
In turn, `Cc1cc(O)c2c(c1)C(O)(c1ccc3c(c1O)C(=O)c1c(O)cc(C)cc1C3(O)C1OC(CO)C(O)C(O)C1O)c1cccc(O)c1C2=O` (configuration not stated) had a TGI of 28.1 µM.
The same measure, in the same setting: then `COC(=O)c1nc(NN)[nH]c(=O)c1CCCCCc1c(C(=O)OC)[nH]c(NN)cc1=O`, with over 100 µM; and `CC1(C)C(=O)C(O)=CC2C1=CCC1C2(C)C(=O)CC2(C)C(C(C)(O)C(=O)CC(O)C(C)(C)O)C(O)CC12C` (configuration not stated), with 7.1 µM; and `CCc1ccccc1NC(=O)C(=O)C(C(=O)c1ccc(OC)cc1)c1ccc(OC)cc1` (configuration not stated), with over 100 µM.
In turn, `C/C(=N/N(C=O)C[n+]1ccccc1)C(CN(CC(C)C)CC(C)C)C(=O)Nc1ccc(C)cc1C` (configuration not stated) registered a TGI of over 100 µM.
On to `COc1cc(C2c3cc4c(cc3[C@@H](Nc3ccc(N(C)C)cc3)[C@H]3COC(=O)C23)OCO4)cc(OC)c1O` (some centres not stated), for which the GI50 was 4.57 µM; the TGI is 14.7 µM and 19.9 µM.
Compound `COc1ccc([C@H]2CC(=O)N3CCCC3N2)cc1` (some centres not stated) came in with a TGI of over 100 µM.
The same measure, in the same setting: then `O=C(CCc1nc(=S)[nH][nH]1)NC12CC3CC(CC(C3)C1)C2`, with over 100 µM; and `CSc1nc2c(c(O)c(C)c(=O)n2C2OC(COC(C)=O)C(OC(C)=O)C(OC(C)=O)C2OC(C)=O)c(=O)n1C` (configuration not stated), with over 100 µM; and `Cc1nc2c(n1CC(C)(C)C)C(=O)c1ccccc1C2=O`, with over 100 µM.
The same measure, in the same setting: to `COc1ccc(C(C2=C(C)C(=O)c3ccccc3C2=O)c2ccc(C(C)C)cc(=O)c2O)cc1` (configuration not stated) belongs 12.6 µM; to `CC(C)N(C(=O)C12C3C4C1C1C2C3C41C(O)C(C)(C)C)C(C)C` (configuration not stated), over 50 µM.

In a further experiment the test system is UACC-62 melanoma. Kind of experiment: NCI tumour cell line growth inhibition, 48 h.
Regarding `O=C1c2ccccc2N2OC3(N4CCCC4)CCCC3C12c1ccccc1` (configuration not stated), the TGI was over 100 µM.
On the same count and under the same terms, to `COc1ccc(C2C(Cl)C(=O)N2n2cnc3ccccc3c2=O)cc1OC` (configuration not stated) belongs over 100 µM; to `Nc1nc2c(ncn2Cc2ccccc2CCO)c(=O)[nH]1`, over 100 µM.
As for `CCC1(Br)C(=O)NC(=O)N(C2CC(O)C(CO)O2)C1N=[N+]=[N-]` (configuration not stated), the TGI was over 100 µM.
In turn, `O=[N+]([O-])c1ccc(N=Nc2c(O)[nH]c3ccc([N+](=O)[O-])cc23)cc1` returned a TGI of 36.5 µM.
Still for that read-out and setting: then `CC12CC3(C)CC(C)(C1)CC(N=[N+]=[N-])(C2)C3`, with over 100 µM.
`Clc1ccc([O][In]([O]c2ccc(Cl)cn2)[O]c2ccc(Cl)cn2)nc1`: the GI50 is over 100 µM and the TGI was over 100 µM.
Turning to `Fc1cccc(Cl)c1C1SCc2nc3ccccc3n21` (configuration not stated), the TGI was found to be 37.5 µM.
As to `COc1cc2nncc(Sc3cnnc4ccccc34)c2cc1OC`, the TGI was over 100 µM.
On to `COC(=O)C1=CCON(c2ccccc2)C1c1ccccc1` (configuration not stated), for which the TGI was over 100 µM.
Still for that read-out and setting: then `CC(=O)N(CCN)CCN`, with over 100 µM; and `Cc1cc(O)c2c(c1)C(O)(c1ccc3c(c1O)C(=O)c1c(O)cc(C)cc1C3(O)C1OC(CO)C(O)C(O)C1O)c1cccc(O)c1C2=O` (configuration not stated), with 25.3 µM; and `COC(=O)c1nc(NN)[nH]c(=O)c1CCCCCc1c(C(=O)OC)[nH]c(NN)cc1=O`, with over 100 µM.
Regarding `CC1(C)C(=O)C(O)=CC2C1=CCC1C2(C)C(=O)CC2(C)C(C(C)(O)C(=O)CC(O)C(C)(C)O)C(O)CC12C` (configuration not stated), the TGI turned out to be 29.7 µM.
As to `CCc1ccccc1NC(=O)C(=O)C(C(=O)c1ccc(OC)cc1)c1ccc(OC)cc1` (configuration not stated), the TGI was over 100 µM.
On to `C/C(=N/N(C=O)C[n+]1ccccc1)C(CN(CC(C)C)CC(C)C)C(=O)Nc1ccc(C)cc1C` (configuration not stated), for which the TGI was over 100 µM.
Turning to `COc1cc(C2c3cc4c(cc3[C@@H](Nc3ccc(N(C)C)cc3)[C@H]3COC(=O)C23)OCO4)cc(OC)c1O` (some centres not stated), the GI50 is 0.347 µM; the TGI is 1.53 µM and 2.28 µM.
Compound `COc1ccc([C@H]2CC(=O)N3CCCC3N2)cc1` (some centres not stated) displayed a TGI of over 100 µM.
`O=C(CCc1nc(=S)[nH][nH]1)NC12CC3CC(CC(C3)C1)C2` registered a TGI of over 100 µM.
Still for that read-out and setting: to `CSc1nc2c(c(O)c(C)c(=O)n2C2OC(COC(C)=O)C(OC(C)=O)C(OC(C)=O)C2OC(C)=O)c(=O)n1C` (configuration not stated) belongs over 100 µM; to `Cc1nc2c(n1CC(C)(C)C)C(=O)c1ccccc1C2=O`, over 100 µM; to `CC(C)N(C(=O)C12C3C4C1C1C2C3C41C(O)C(C)(C)C)C(C)C` (configuration not stated), over 50 µM.

In a further experiment the test system is SK-MEL-5 melanoma. Description: NCI tumour cell line growth inhibition, 48 h.
In turn, `O=C1c2ccccc2N2OC3(N4CCCC4)CCCC3C12c1ccccc1` (configuration not stated) came in with a TGI of over 100 µM.
On the same count and under the same terms, to `COc1ccc(C2C(Cl)C(=O)N2n2cnc3ccccc3c2=O)cc1OC` (configuration not stated) belongs over 100 µM.
Consider `Nc1nc2c(ncn2Cc2ccccc2CCO)c(=O)[nH]1`, for which the TGI is over 100 µM.
`CCC1(Br)C(=O)NC(=O)N(C2CC(O)C(CO)O2)C1N=[N+]=[N-]` (configuration not stated): the TGI was over 100 µM.
The same measure, in the same setting: to `O=[N+]([O-])c1ccc(N=Nc2c(O)[nH]c3ccc([N+](=O)[O-])cc23)cc1` belongs 26.7 µM.
`CC12CC3(C)CC(C)(C1)CC(N=[N+]=[N-])(C2)C3`: the TGI is over 100 µM.
In the case of `N=C(N)SCc1cn2ccccc2n1`, the TGI is over 100 µM.
As for `Clc1ccc([O][In]([O]c2ccc(Cl)cn2)[O]c2ccc(Cl)cn2)nc1`, the GI50 is 15.8 µM and the TGI came out at 76.8 µM.
`Fc1cccc(Cl)c1C1SCc2nc3ccccc3n21` (configuration not stated): the TGI was 29.7 µM.
Still for that read-out and setting: to `COc1cc2nncc(Sc3cnnc4ccccc34)c2cc1OC` belongs 29.5 µM.
Still for that read-out and setting: to `CC(=O)N(CCN)CCN` belongs over 100 µM; to `Cc1cc(O)c2c(c1)C(O)(c1ccc3c(c1O)C(=O)c1c(O)cc(C)cc1C3(O)C1OC(CO)C(O)C(O)C1O)c1cccc(O)c1C2=O` (configuration not stated), 33 µM; to `COC(=O)c1nc(NN)[nH]c(=O)c1CCCCCc1c(C(=O)OC)[nH]c(NN)cc1=O`, over 100 µM.
Compound `CC1(C)C(=O)C(O)=CC2C1=CCC1C2(C)C(=O)CC2(C)C(C(C)(O)C(=O)CC(O)C(C)(C)O)C(O)CC12C` (configuration not stated) returned a TGI of 8.53 µM.
On the same count and under the same terms, to `CCc1ccccc1NC(=O)C(=O)C(C(=O)c1ccc(OC)cc1)c1ccc(OC)cc1` (configuration not stated) belongs over 100 µM; to `C/C(=N/N(C=O)C[n+]1ccccc1)C(CN(CC(C)C)CC(C)C)C(=O)Nc1ccc(C)cc1C` (configuration not stated), over 100 µM.
For `COc1cc(C2c3cc4c(cc3[C@@H](Nc3ccc(N(C)C)cc3)[C@H]3COC(=O)C23)OCO4)cc(OC)c1O` (some centres not stated), the GI50 was 1.12 µM; the TGI is 2.46 µM and 4.52 µM.
The compound `COc1ccc([C@H]2CC(=O)N3CCCC3N2)cc1` (some centres not stated) displayed a TGI of over 100 µM.
Same read-out and setting: then `O=C(CCc1nc(=S)[nH][nH]1)NC12CC3CC(CC(C3)C1)C2`, with over 100 µM.
On the same count and under the same terms, then `CSc1nc2c(c(O)c(C)c(=O)n2C2OC(COC(C)=O)C(OC(C)=O)C(OC(C)=O)C2OC(C)=O)c(=O)n1C` (configuration not stated), with over 100 µM.
Still for that read-out and setting: then `Cc1nc2c(n1CC(C)(C)C)C(=O)c1ccccc1C2=O`, with over 100 µM; and `COc1ccc(C(C2=C(C)C(=O)c3ccccc3C2=O)c2ccc(C(C)C)cc(=O)c2O)cc1` (configuration not stated), with 15.2 µM; and `CC(C)N(C(=O)C12C3C4C1C1C2C3C41C(O)C(C)(C)C)C(C)C` (configuration not stated), with over 50 µM.

A further experiment relates to RPMI-8226 leukemia. Kind of experiment: NCI tumour cell line growth inhibition, 48 h.
With `O=C1c2ccccc2N2OC3(N4CCCC4)CCCC3C12c1ccccc1` (configuration not stated), the TGI is over 100 µM.
Consider `COc1ccc(C2C(Cl)C(=O)N2n2cnc3ccccc3c2=O)cc1OC` (configuration not stated), for which the TGI is over 100 µM.
Consider `Nc1nc2c(ncn2Cc2ccccc2CCO)c(=O)[nH]1`, for which the TGI is over 100 µM.
In turn, `CCC1(Br)C(=O)NC(=O)N(C2CC(O)C(CO)O2)C1N=[N+]=[N-]` (configuration not stated) returned a TGI of over 100 µM.
Still for that read-out and setting: to `O=[N+]([O-])c1ccc(N=Nc2c(O)[nH]c3ccc([N+](=O)[O-])cc23)cc1` belongs 36.2 µM; to `CC12CC3(C)CC(C)(C1)CC(N=[N+]=[N-])(C2)C3`, over 100 µM.
The same measure, in the same setting: to `N=C(N)SCc1cn2ccccc2n1` belongs over 100 µM; to `Fc1cccc(Cl)c1C1SCc2nc3ccccc3n21` (configuration not stated), 60.2 µM.
With `COc1cc2nncc(Sc3cnnc4ccccc34)c2cc1OC`, the TGI was 77.7 µM.
The same measure, in the same setting: then `COC(=O)C1=CCON(c2ccccc2)C1c1ccccc1` (configuration not stated), with over 100 µM; and `CC(=O)N(CCN)CCN`, with over 10 µM.
On the same count and under the same terms, then `Cc1cc(O)c2c(c1)C(O)(c1ccc3c(c1O)C(=O)c1c(O)cc(C)cc1C3(O)C1OC(CO)C(O)C(O)C1O)c1cccc(O)c1C2=O` (configuration not stated), with over 100 µM; and `COC(=O)c1nc(NN)[nH]c(=O)c1CCCCCc1c(C(=O)OC)[nH]c(NN)cc1=O`, with over 100 µM; and `CC1(C)C(=O)C(O)=CC2C1=CCC1C2(C)C(=O)CC2(C)C(C(C)(O)C(=O)CC(O)C(C)(C)O)C(O)CC12C` (configuration not stated), with 19.1 µM.
Take `CCc1ccccc1NC(=O)C(=O)C(C(=O)c1ccc(OC)cc1)c1ccc(OC)cc1` (configuration not stated): the TGI is over 100 µM.
The same measure, in the same setting: then `C/C(=N/N(C=O)C[n+]1ccccc1)C(CN(CC(C)C)CC(C)C)C(=O)Nc1ccc(C)cc1C` (configuration not stated), with over 100 µM; and `COc1ccc([C@H]2CC(=O)N3CCCC3N2)cc1` (some centres not stated), with over 100 µM.
Turning to `CSc1nc2c(c(O)c(C)c(=O)n2C2OC(COC(C)=O)C(OC(C)=O)C(OC(C)=O)C2OC(C)=O)c(=O)n1C` (configuration not stated), the TGI is over 100 µM.
Still for that read-out and setting: then `COc1ccc(C(C2=C(C)C(=O)c3ccccc3C2=O)c2ccc(C(C)C)cc(=O)c2O)cc1` (configuration not stated), with over 100 µM.

Values taken from PubChem BioAssay (NCI).
